From article PMC7343278, “A Meroisoprenoid, Heptenolides, and C-Benzylated Flavonoids from Sphaerocoryne gracilis ssp. gracilis” (Journal of Natural Products, 2020)
Where two headings read alike, the source gives them in different places. Values belong to the compound of their own block, whether it stands above or below them.

Experiments:
[1] = system: HEK-293 human embryonic kidney cells; test: Cytotoxicity against human embryonic kidney cells; type: cell-based; conditions: for inhibition at 20 µM: read-out: Percentage growth inhibition at 20 μM, HEK-293
Description: (§1) Antiplasmodial activity was determined using a high-content imaging assay, as described previously.[10],[24] The cytotoxicity of the antiplasmodial compounds was evaluated against human embryonic kidney cells (HEK-293) following an established protocol.[10],[24] Human red blood cells for culture of P. falciparum were provided by the Australian Red Cross Blood Bank in accordance with their routine Material Transfer Agreement (MTA) for nonclinical blood product supply. These bioassay studies were approved by the Griffith University Biosafety and Human Ethics Committee (GU ref no. ESK/03/12/HREC; 03/08/11019).

[2] = system: Plasmodium falciparum chloroquine-resistant (Dd2) strain; test: Antiplasmodial high-content imaging assay, Dd2 strain; type: cell-based
Description: as §1

[3] = system: Plasmodium falciparum chloroquine-sensitive (3D7) strain; test: Antiplasmodial high-content imaging assay, 3D7 strain; type: cell-based; conditions: for IC50: Plasmodium falciparum; for inhibition of plasmodial growth at 20 μM: 20 μM concentration, strain not specified (3D7/Dd2)
[4] = system: cap-dependent and independent translation initiation; test: Translation inhibition assay (luciferase model); type: biochemical; conditions: in vitro
Description: Luciferase inhibition activity assays were performed following standard procedures described previously.[9],[10]

[5] = P. falciparum Dd2 (chloroquine-resistant), read-out: IC50 Dd2
[6] = P. falciparum 3D7 (chloroquine-sensitive), read-out: IC50 3D7

Compound: C[C@H]1[C@@H](O)O[C@@H]2O[C@@]3(C)CC[C@H]4[C@H](C)CC[C@@H]1[C@@]24OO3 [DHA]
inhibition at 20 µM ([1]; HEK293, HEK-293 cells): 50%

Compound: C[C@H]1[C@H](OC(=O)CCC(=O)O)O[C@@H]2O[C@@]3(C)CC[C@H]4[C@H](C)CC[C@@H]1[C@@]24OO3 [artesunate]
inhibition at 20 µM ([1]; HEK293, HEK-293 cells): 75%

Compound: CCN(CC)CCCC(C)Nc1ccnc2cc(Cl)ccc12 (stereo not drawn) [chloroquine]
IC50 ([2]; DD2, read-out: IC50 Dd2): 0.046 µM
IC50 ([3]; 3D7, read-out: IC50 3D7): 0.0045 µM
inhibition at 40 µM ([1]; HEK293, read-out: Percentage growth inhibition at 40 μM, HEK-293): 60%

Compound: O=C1C[C@@H](c2ccccc2)Oc2cc(O)c(Cc3cccc(O)c3O)c(O)c21 [compound 4, (S)-6-(2,3-dihydroxybenzyl)-5,7-dihydroxy-2-phenylchroman-4-one]
translational inhibitory activity [4]: none showed significant translational inhibitory activity
inhibition of plasmodial growth at 20 μM [3]: inhibited plasmodial growth moderately

Compound: O=c1cc(-c2ccccc2)oc2c(Cc3cccc(O)c3O)c(O)cc(O)c12 [compound 5, 8-(2,3-dihydroxybenzyl)-5,7-dihydroxy-2-phenyl-4H-chromen-4-one]
translational inhibitory activity [4]: none showed significant translational inhibitory activity
inhibition of plasmodial growth at 20 μM [3]: inhibited plasmodial growth moderately

Compound: O=C1C[C@@H](c2ccccc2)Oc2c(Cc3cccc(O)c3O)c(O)c(Cc3cccc(O)c3O)c(O)c21 [compound 6, 3″-hydroxygracinol]
translational inhibitory activity [4]: none showed significant translational inhibitory activity

Compound: O=C1C=C/C(=C/[C@H](O)COC(=O)c2ccccc2)O1 [compound 9, (Z)-melodorinol]
translational inhibitory activity [4]: none showed significant translational inhibitory activity

Compound: COC(=O)/C=C/C(=O)C[C@H](O)COC(=O)c1ccccc1 [compound 10, 7-hydroxy-6-hydromelodienone]
translational inhibitory activity [4]: none showed significant translational inhibitory activity
inhibition at 40 µM ([1]; HEK293, HEK-293 cells, 40 μM, read-out: Percentage growth inhibition at 40 μM, HEK-293): 100%

Compound: O=c1cc(-c2ccccc2)oc2cc(O)cc(O)c12 [compound 12, 5,7-dihydroxyflavone]
translational inhibitory activity [4]: none showed significant translational inhibitory activity

IC50 [2, 5]: 0.045 µM
IC50 [3, 6]: 0.023 µM
Compound: COc1ccc(C[C@H](N)C(=O)N[C@H]2[C@@H](O)[C@H](n3cnc4c(N(C)C)ncnc43)O[C@@H]2CO)cc1 [puromycin]
IC50 ([1]; HEK293, HEK-293 cells): 0.36 µM

Compound: CCc1nc(N)nc(N)c1-c1ccc(Cl)cc1 [pyrimethamine]
IC50 ([1]; HEK293, HEK-293 cells): 4.2 µM

IC50 [2, 5]: 0.0075 µM
IC50 [3, 6]: 0.0036 µM
Compound: COc1ccc2nc3cc(Cl)ccc3c(Nc3cc(CN4CCCC4)c(O)c(CN4CCCC4)c3)c2n1 [pyronaridine]
IC50 ([1]; HEK293, HEK-293 cells): 1.8 µM
